US20260224584A1 (priority 2023, published 2026)
Structures can show the parent of a compound that is named as a salt.

Each compound was assayed on Human WB (90%) CD69 (assay: Human WB (90%) CD69). Conditions: read-out: Human WB (90%) CD69 IC50 (nM); human whole blood (90%), CD69 readout.
Type: cell-based

Structure (SMILES)	IC50 [nM]
Cc1nc2c(N3CCC(CNC4CCOCC4)CC3)cc(-c3ccc(N4CCN(C(C)C)CC4)cc3)cc2n1C [Example 61, N-((1-(6-(4-(4-isopropylpiperazin-1-yl)phenyl)-1,2-dimethyl-1H-benzo[d]imidazol-4-yl)piperidin-4-yl)methyl)tetrahydro-2H-pyran-4-amine]	156
CC(C)N1CCN(c2ccc(-c3cc(NC4CCN(C5COC5)CC4)c4nc(-c5ccc(S(C)(=O)=O)cc5)n(C)c4c3)cc2)CC1 [Example 62, 6-(4-(4-isopropylpiperazin-1-yl)phenyl)-1-methyl-2-(4-(methylsulfonyl)phenyl)-N-(1-(oxetan-3-yl)piperidin-4-yl)-1H-benzo[d]imidazol-4-amine, 2 TFA]	111
CC(C)N1CCN(c2ccc(-c3cc(NCCN4CCOCC4)c4nc(-c5ccc(S(C)(=O)=O)cc5)n(C)c4c3)cc2)CC1 [Example 63, 6-(4-(4-isopropylpiperazin-1-yl)phenyl)-1-methyl-2-(4-(methylsulfonyl)phenyl)-N-(2-morpholinoethyl)-1H-benzo[d]imidazol-4-amine]	121
